# Laboratory results taken from patent US20230295162A1 (EÖTVÖS LORÁND TUDOMÁNYEGYETEM, priority 2020, published 2023).
# Read-outs that look alike come from different tables or passages of the source.
# Key:
# [1] = tested on: Panc-1 human cell line; test: Cytotoxicity on Panc-1, xCELLigence SP, IC50 after 24 h, 48 h, 72 h and 96 h (Example 22)
# [2] = tested on: MDA-MB-453 (breast, carcinoma) cells; test: Cell viability assay, CellTiter-Glo (Example 21); assay type: cell-based, human; conditions: 72 h treatment
# Experimental: (§1) Effect of the selected compounds on cancer cell viability was measured via CellTiter-Glo® luminescent cell viability assay (Promega, Madison, WI, USA) according to the manufacturer's instructions. Cells were plated onto a flat-bottomed, white 96 well plate (BRANDplates®, cat. no.: 781965). Density of the seeded cells was optimized based on their size and growth rate, as the follows: Panc-1:750 cells/well; DU 145, PC-3, Capan-1, MIA PaCa-2, SCC-25, FaDu and EBC-1: 1000 cells/well; LNCaP, Detroit 562, MDA-MB-231 and MDA-MB-453 1500 cells/well. […] After the treatment, the luminescence signal was recorded using a microplate reader (BioTek Synergy 2 Multi-Mode Reader, BioTek, Winooski, VT, USA). Dose-response curves were generated by GraphPad Prism 8.4.2. software using a non-linear regression model (variable slope, four parameters), (see FIGS. 12-51).
# [3] = tested on: FaDu (pharynx, squamous cell carcinoma) cells; test: Cell viability assay, CellTiter-Glo (Example 21); assay type: cell-based, human; conditions: 72 h treatment
# Experimental: as §1
# [4] = tested on: Capan-1 (pancreas, adenocarcinoma) cells; test: Cell viability assay, CellTiter-Glo (Example 21); assay type: cell-based, human; conditions: 72 h treatment
# Experimental: as §1
# [5] = tested on: MDA-MB-231 (breast, adenocarcinoma) cells; test: Cell viability assay, CellTiter-Glo (Example 21); assay type: cell-based, human; conditions: 72 h treatment
# Experimental: as §1
# [6] = tested on: Panc-1 (pancreas, carcinoma) cells; test: Cell viability assay, CellTiter-Glo (Example 21); assay type: cell-based, human; conditions: 72 h treatment
# Experimental: as §1
# [7] = tested on: MIA PaCa-2 (pancreas, carcinoma) cells; test: Cell viability assay, CellTiter-Glo (Example 21); assay type: cell-based, human; conditions: 72 h treatment
# Experimental: as §1
# [8] = tested on: DU 145 (prostate, carcinoma) cells; test: Cell viability assay, CellTiter-Glo (Example 21); assay type: cell-based, human; conditions: 72 h
# Experimental: as §1
# [9] = tested on: SCC-25 (tongue, squamous cell carcinoma) cells; test: Cell viability assay, CellTiter-Glo (Example 21); assay type: cell-based, human; conditions: 72 h treatment
# Experimental: as §1
# [10] = tested on: Detroit 562 (pharynx, carcinoma) cells; test: Cell viability assay, CellTiter-Glo (Example 21); assay type: cell-based, human; conditions: 72 h treatment
# Experimental: as §1
# [11] = tested on: LNCaP (prostate, carcinoma) cells; test: Cell viability assay, CellTiter-Glo (Example 21); assay type: cell-based, human; conditions: 72 h
# Experimental: as §1
# [12] = tested on: PC-3 (prostate, adenocarcinoma) cells; test: Cell viability assay, CellTiter-Glo (Example 21); assay type: cell-based, human; conditions: 72 h treatment
# Experimental: as §1
# [13] = tested on: EBC-1 (lung, squamous cell carcinoma) cells; test: Cell viability assay, CellTiter-Glo (Example 21); assay type: cell-based, human; conditions: 72 h treatment
# Experimental: as §1
# [14] = tested on: PANC-1 (human pancreatic carcinoma) cells; test: Impedance-based viability assay (xCELLigence SP), long treatment; assay type: cell-based; conditions: 72 h, read-out: cytotoxicity expressed in IC50, PANC-1
# Description: (Gibco®/Invitrogen Corporation, New York, NY, USA).
# Data obtained from each experiment represent mathematical averages.
# [15] = tested on: H2228 lung cancer cell line; test: High-throughput screening, CellTiter-Glo cell viability assay at 100 nM; assay type: cell-based, human; conditions: Homo sapiens, NCI-H2228, HTS, compounds at 100 nM, 72 h, read-out: cytotoxicity expressed in IC50, H2228 (results of High throughput screening)
# Experimental: (§2) EBC-1 (obtained from JRCB, https://cellbank.nibiohn.go.jp/english/) and H2228 (obtained from ATCC https://www.lgcstandards-atcc.org/) cell lines were maintained according to the instructions provided by JRCB and ATCC in a 5% CO2 humidified incubator maintained at 37° C. temperature. Effect of compounds on cell viability was measured via CellTiter-Glo® luminescent cell viability assay (Promega, Madison, WI, USA). Cells were plated at 1000 cells/well onto a flat-bottomed, white 96 well plate (BRANDplates, cat. no.: 781965). After 24 h, cells were treated for 72 h with the compounds at 100 nM concentration. After the treatment, medium was removed and CellTiter-Glo® reagent was added. Untreated cells were used as control. The luminescence signal was recorded using a microplate reader (BioTek Synergy 2 Multi-Mode Reader, BioTek, Winooski, VT, USA). Cell viability data (% of untreated control cells) was evaluated with Microsoft Excel.
# [16] = tested on: EBC-1 lung cancer cell line; test: as above; assay type: cell-based, human; conditions: Homo sapiens, EBC-1, HTS, compounds at 100 nM, 72 h, read-out: cytotoxicity expressed in IC50, EBC-1 (results of High throughput screening)
# Experimental: as §2
smiles,measurement,setting,value
"O=C1C2=C(CCN(Cc3cccc(F)c3)C2)N2CCN=C2N1Cc1ccc(F)cc1 [I/6, reference compound]",IC50,"[1]; PANC-1, 72 h, read-out: IC50 (72 h) [nM]",126 ± 5.96 nM
same,IC50,"[1]; PANC-1, 96 h, read-out: IC50 (96 h) [nM]",75.5 ± 6.76 nM
same,"MDA-MB-453 (breast, carcinoma) cell viability (% of control)",[2]; 3.7 nM,113.6 ± 9.8 % of control
same,"MDA-MB-453 (breast, carcinoma) cell viability (% of control)",[2]; 11.1 nM,103.7 ± 10.4 % of control
same,"MDA-MB-453 (breast, carcinoma) cell viability (% of control)",[2]; 100 nM,33.9 ± 1.3 % of control
same,"MDA-MB-453 (breast, carcinoma) cell viability (% of control)",[2]; 300 nM,32.0 ± 1.1 % of control
same,"FaDu (pharynx, squamous cell carcinoma) cell viability (% of control)",[3]; 3.7 nM,97.9 ± 3.9 % of control
same,"FaDu (pharynx, squamous cell carcinoma) cell viability (% of control)",[3]; 11.1 nM,97.8 ± 5.2 % of control
same,"FaDu (pharynx, squamous cell carcinoma) cell viability (% of control)",[3]; 100 nM,27.3 ± 5.2 % of control
same,"FaDu (pharynx, squamous cell carcinoma) cell viability (% of control)",[3]; 300 nM,25.2 ± 4.6 % of control
same,"Capan-1 (pancreas, adenocarcinoma) cell viability (% of control)",[4]; 3.7 nM,105.9 ± 7.8 % of control
same,"Capan-1 (pancreas, adenocarcinoma) cell viability (% of control)",[4]; 11.1 nM,106.0 ± 8.0 % of control
same,"Capan-1 (pancreas, adenocarcinoma) cell viability (% of control)",[4]; 100 nM,40.1 ± 3.7 % of control
same,"Capan-1 (pancreas, adenocarcinoma) cell viability (% of control)",[4]; 300 nM,37.4 ± 3.5 % of control
same,"MDA-MB-231 (breast, adenocarcinoma) cell viability (% of control)",[5]; 3.7 nM,100.5 ± 5.4 % of control
same,"MDA-MB-231 (breast, adenocarcinoma) cell viability (% of control)",[5]; 11.1 nM,99.4 ± 4.1 % of control
same,"MDA-MB-231 (breast, adenocarcinoma) cell viability (% of control)",[5]; 100 nM,57.7 ± 3.8 % of control
same,"MDA-MB-231 (breast, adenocarcinoma) cell viability (% of control)",[5]; 300 nM,57.4 ± 1.7 % of control
same,"Panc-1 (pancreas, carcinoma) cell viability (% of control)",[6]; 3.7 nM,107.8 ± 16.0 % of control
same,"Panc-1 (pancreas, carcinoma) cell viability (% of control)",[6]; 11.1 nM,109.1 ± 4.2 % of control
same,"Panc-1 (pancreas, carcinoma) cell viability (% of control)",[6]; 100 nM,57.1 ± 0.1 % of control
same,"Panc-1 (pancreas, carcinoma) cell viability (% of control)",[6]; 300 nM,57.2 ± 3.2 % of control
same,"MIA PaCa-2 (pancreas, carcinoma) cell viability (% of control)",[7]; 3.7 nM,101.6 ± 10.8 % of control
same,"MIA PaCa-2 (pancreas, carcinoma) cell viability (% of control)",[7]; 11.1 nM,110.7 ± 6.4 % of control
same,"MIA PaCa-2 (pancreas, carcinoma) cell viability (% of control)",[7]; 100 nM,21.6 ± 9.1 % of control
same,"MIA PaCa-2 (pancreas, carcinoma) cell viability (% of control)",[7]; 300 nM,19.5 ± 7.5 % of control
same,DU 145 cell viability,[8]; 3.7 nM,96.8 ± 3.7 % of control
same,DU 145 cell viability,[8]; 11.1 nM,93.4 ± 2.2 % of control
same,DU 145 cell viability,[8]; 100 nM,8.0 ± 1.4 % of control
same,DU 145 cell viability,[8]; 300 nM,7.9 ± 1.6 % of control
same,"SCC-25 (tongue, squamous cell carcinoma) cell viability (% of control)",[9]; 3.7 nM,101.8 ± 4.3 % of control
same,"SCC-25 (tongue, squamous cell carcinoma) cell viability (% of control)",[9]; 11.1 nM,96.2 ± 4.8 % of control
same,"SCC-25 (tongue, squamous cell carcinoma) cell viability (% of control)",[9]; 100 nM,42.5 ± 1.8 % of control
same,"SCC-25 (tongue, squamous cell carcinoma) cell viability (% of control)",[9]; 300 nM,41.5 ± 3.1 % of control
same,"Detroit 562 (pharynx, carcinoma) cell viability (% of control)",[10]; 3.7 nM,99.8 ± 6.4 % of control
same,"Detroit 562 (pharynx, carcinoma) cell viability (% of control)",[10]; 11.1 nM,50.9 ± 15.2 % of control
same,"Detroit 562 (pharynx, carcinoma) cell viability (% of control)",[10]; 100 nM,31.6 ± 2.1 % of control
same,"Detroit 562 (pharynx, carcinoma) cell viability (% of control)",[10]; 300 nM,33.0 ± 3.4 % of control
same,LNCaP cell viability,[11]; 3.7 nM,101.8 ± 5.6 % of control
same,LNCaP cell viability,[11]; 11.1 nM,97.9 ± 7.3 % of control
same,LNCaP cell viability,[11]; 100 nM,15.4 ± 2.0 % of control
same,LNCaP cell viability,[11]; 300 nM,14.4 ± 0.7 % of control
same,"PC-3 (prostate, adenocarcinoma) cell viability (% of control)",[12]; 3.7 nM,103.6 ± 14.4 % of control
same,"PC-3 (prostate, adenocarcinoma) cell viability (% of control)",[12]; 11.1 nM,108.7 ± 7.7 % of control
same,"PC-3 (prostate, adenocarcinoma) cell viability (% of control)",[12]; 100 nM,35.3 ± 0.5 % of control
same,"PC-3 (prostate, adenocarcinoma) cell viability (% of control)",[12]; 300 nM,34.1 ± 2.0 % of control
same,"EBC-1 (lung, squamous cell carcinoma) cell viability (% of control)",[13]; 3.7 nM,101.0 ± 19.5 % of control
same,"EBC-1 (lung, squamous cell carcinoma) cell viability (% of control)",[13]; 11.1 nM,101.7 ± 3.3 % of control
same,"EBC-1 (lung, squamous cell carcinoma) cell viability (% of control)",[13]; 100 nM,25.1 ± 0.3 % of control
same,"EBC-1 (lung, squamous cell carcinoma) cell viability (% of control)",[13]; 300 nM,24.1 ± 2.4 % of control
same,IC50,[14],< 100 nM
same,IC50,[15],< 100 nM
same,IC50,[16],< 100 nM
"O=C1C2=C(CCN(Cc3cc(F)cc(F)c3)C2)N2CCN=C2N1Cc1cccc(Cl)c1 [I/125, 4-(3-Chlorobenzyl)-7-(3,5-difluorobenzyl)-2,4,6,7,8,9-hexahydroimidazo[1,2-a]pyrido[3,4-e]pyrimidin-5(1H)-one]",melting point,,204.8 °C
